Molecular target: T1, His6-NALP1 wild-type (Homo sapiens, UniProt Q9C000)
T1 construct: made in house; host or cells: COS-7 cells, transient transfection, Ni-NTA purification
T1 sequence (Q9C000 1-1473): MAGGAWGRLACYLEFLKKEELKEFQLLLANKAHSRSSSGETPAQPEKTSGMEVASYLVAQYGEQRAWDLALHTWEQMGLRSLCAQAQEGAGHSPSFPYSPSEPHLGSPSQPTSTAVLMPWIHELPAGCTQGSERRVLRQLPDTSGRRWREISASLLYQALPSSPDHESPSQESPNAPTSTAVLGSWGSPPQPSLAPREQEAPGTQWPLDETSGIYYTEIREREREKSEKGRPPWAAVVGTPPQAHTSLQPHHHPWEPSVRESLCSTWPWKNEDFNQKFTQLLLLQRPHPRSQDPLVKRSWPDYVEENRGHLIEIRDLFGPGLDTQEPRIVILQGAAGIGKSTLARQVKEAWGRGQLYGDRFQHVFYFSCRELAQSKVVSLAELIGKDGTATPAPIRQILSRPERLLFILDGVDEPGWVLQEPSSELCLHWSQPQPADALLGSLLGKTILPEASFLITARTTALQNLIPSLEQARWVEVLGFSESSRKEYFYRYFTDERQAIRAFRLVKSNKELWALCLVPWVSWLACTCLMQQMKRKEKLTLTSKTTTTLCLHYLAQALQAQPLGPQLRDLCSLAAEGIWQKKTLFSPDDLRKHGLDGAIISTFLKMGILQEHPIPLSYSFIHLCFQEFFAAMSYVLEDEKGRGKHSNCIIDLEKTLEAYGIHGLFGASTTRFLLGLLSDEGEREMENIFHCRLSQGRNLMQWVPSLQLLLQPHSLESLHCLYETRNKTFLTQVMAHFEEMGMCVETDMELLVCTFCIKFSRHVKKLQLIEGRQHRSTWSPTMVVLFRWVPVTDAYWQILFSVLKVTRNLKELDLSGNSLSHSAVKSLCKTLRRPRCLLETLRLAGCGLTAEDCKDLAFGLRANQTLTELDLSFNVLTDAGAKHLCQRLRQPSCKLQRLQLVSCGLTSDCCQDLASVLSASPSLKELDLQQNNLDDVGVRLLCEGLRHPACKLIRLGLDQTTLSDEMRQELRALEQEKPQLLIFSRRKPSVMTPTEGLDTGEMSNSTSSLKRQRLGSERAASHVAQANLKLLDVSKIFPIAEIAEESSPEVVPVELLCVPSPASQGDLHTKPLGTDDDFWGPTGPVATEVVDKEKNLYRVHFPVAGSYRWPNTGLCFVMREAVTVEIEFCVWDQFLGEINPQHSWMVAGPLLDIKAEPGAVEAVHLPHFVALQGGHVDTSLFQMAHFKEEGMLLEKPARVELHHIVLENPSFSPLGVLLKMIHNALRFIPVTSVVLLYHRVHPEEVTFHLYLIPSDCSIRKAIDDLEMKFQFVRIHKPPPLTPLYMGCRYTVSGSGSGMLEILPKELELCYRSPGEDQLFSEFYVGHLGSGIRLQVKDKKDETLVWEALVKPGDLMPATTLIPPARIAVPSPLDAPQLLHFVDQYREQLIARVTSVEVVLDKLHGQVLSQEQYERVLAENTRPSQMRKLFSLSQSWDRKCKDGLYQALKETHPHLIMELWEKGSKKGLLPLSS
Assay: Ni flashplate dATPα35S binding assay, wild-type His6-NALP1
Details: 8 nM dATPα35S displaced by non-radiolabeled dATP
Procedure: Production of purified NALP-Flashplate binding assay. NALP1 protein for in vitro binding assays was purified from transiently transfected cells. COS-7 cells were plated in DMEM, 10% fetal calf serum with amino acid supplements and antibiotics and allowed to grow to approximately 50% confluency. Large-scale preparations were performed in Cell Factories (NUNC) with approximately 600 μg plasmid DNA. Polyfect transfection reagent (Qiagen) was used as described by the manufacturer. After 24 hours, cells were collected by trypsinization, washed with fresh medium and then with PBS. Cells were lysed by resuspension in 10× cell volume of lysis buffer (140 mM NaCl, 0.1% Triton-X100, 0.1 mM DTT, 20 mM HEPES at pH 7.4 and protease inhibitor cocktail (Roche Diagnostics BmbH)). Lysates were centrifuged at approximately 7400×g for 30 minutes and supernatants were supplemented with glycerol to a final concentration of 10% and stored at −70° C. until purification. Protein concentrations were measured and samples normalized. Extracts were mixed with 1 ml Ni-NTA agarose equilibrated with the same buffer for 1 hour at 4° C. in the tube. Disposable columns were filled with the resin and flow-through collected. […] Reactions were stopped by aspirating solutions and washed once with Buffer B. Plates were counted in a Top Count scintillation counter (Packard).

SMILES: Nc1ncnc2c1ncn2[C@H]1C[C@H](O)[C@@H](COP(=O)(O)OP(=O)(O)OP(=O)(O)O)O1 [dATP]
- specific binding of dATP to wild-type NALP1: specific binding

Source: patent US20040248775A1, “Methods for screening inhibitors of apoptosis” (Wyeth, priority 2003, published 2004)
